Measured values reported in US9944598B2, “Mono- or di-substituted indole derivatives as dengue viral replication inhibitors” (priority 2014, dated 2018).

Key:
[1] = test system: Vero cells; assay: in vitro; type: cell-based; conditions: African green monkey
Procedure: (§1) In parallel, the toxicity of the compounds was assessed on the same plates. Once the read-out for the eGFP signal was done, 10 μL of resazurin, a cell viability stain, was added to all wells of the 384-well plates. The resazurin assay is based on the reduction of the blue resazurin by NADH, produced by the cells, into the highly fluorescent product, resorufin. The formation of pink fluorescent resorufin is directly related to the number of viable cells in the well. The plates were incubated for an additional 5 hours in a fully humidified incubator (37° C., 5% CO2). Next, the plates were measured on an Infinite reader (Tecan) using an excitation wavelength of 530 nm. The half maximal cytotoxic concentration (CC50) was also determined, defined as the concentration required to reduce the resazurin conversion by 50% compared to that of the cell control wells (Table 1). Finally, the selectivity index (SI) is determined for the compounds, which is calculated as followed: SI=CC50/EC50.

[2] = test system: DENV-2 16681 strain labeled with eGFP; assay: DENV-2 antiviral assay (eGFP fluorescence, Vero cells); type: cell-based, Dengue virus; conditions: DENV-2 16681 eGFP, MOI 0.5, 3 days
Procedure: The antiviral activity of all the compounds of the invention was tested against DENV-2 16681 strain which was labeled with enhanced green fluorescent protein (eGPF). The culture medium consists of minimal essential medium supplemented with 2% of heat-inactivated fetal calf serum, 0.04% gentamycin (50 mg/mL) and 2 mM of L-glutamine. Vero cells, obtained from ECACC, were suspended in culture medium and 25 μL was added to 384-well plates (2500 cells/well), which already contain the antiviral compounds. Typically, these plates contain a 4-fold serial dilution of 9 dilution steps of the test compound at 200 times the final concentration in 100% DMSO (200 nL). In addition, each compound concentration is tested in quadruplicate (final concentration range: 25 μM-0.00038 μM). Finally, each plate contains wells which are assigned as virus controls (containing cells and virus in the absence of compound), cell controls (containing cells in the absence of virus and compound) and medium controls (containing medium in the absence of cells, virus and compounds). To the wells assigned as medium control, 25 μL of culture medium was added instead of Vero cells. Once the cells were added to the plates, the plates were incubated for 30 minutes at room temperature to allow the cells to distribute evenly within the wells. Next, the plates were incubated in a fully humidified incubator (37° C., 5% CO2) until the next day. Then, DENV-2 strain 16681, labeled with eGFP, was added at a multiplicity of infection (MOI) of 0.5. Therefore, 15 μL of virus suspension was added to all the wells containing test compound and to the wells assigned as virus control. In parallel, 15 μL of culture medium was added to the medium and cell controls. Next, the plates were incubated for 3 days in a fully humidified incubator (37° C., 5% CO2). At the day of the read out, the eGFP fluorescence was measured using an automated fluorescence microscope at 488 nm (blue laser). Using an in-house LIMS system, inhibition dose response curves for each compound were calculated and the half maximal effective concentration (EC50) was determined. Therefore, the percent inhibition (I) for every test concentration is calculated using the following formula: I=100*(ST−SCC)/(SVC−SCC); ST, SCC and SVC are the amount of eGFP signal in the test compound, cell control and virus control wells, respectively. The EC50 represents the concentration of a compound at which the virus replication is inhibited with 50%, as measured by a 50% reduction of the eGFP fluorescent intensity compared to the virus control. The EC50 is calculated using linear interpolation (Table 1).

[3] = in vitro; type: cell-based; conditions: African green monkey, CC50
Procedure: as §1

[4] = Dengue virus, DENV2, Vero, 72 h

Row | Compound | CC50 [1] | EC50 [2] | CC50 [3] | EC50 [2, 4] | melting point
1 | COc1cc(NC(C(=O)c2c[nH]c3cc(OC)c(F)cc23)c2ccc(Cl)cc2OC)cc(OCCO)c1 (single isomer, unassigned) [Compound 7B, 2-(4-chloro-2-methoxyphenyl)-1-(5-fluoro-6-methoxy-1H-indol-3-yl)-2-((3-(2-hydroxyethoxy)-5-methoxyphenyl)amino)ethanone] | 7800 nM | 69 nM | – | – | –
2 | COc1cc(NC(C(=O)c2c[nH]c3c(F)c(F)ccc23)c2ccc(Cl)cc2OC)cc(OCCO)c1 (racemic) [Compound 11, 2-(4-chloro-2-methoxyphenyl)-1-(6,7-difluoro-1H-indol-3-yl)-2-((3-(2-hydroxyethoxy)-5-methoxyphenyl)amino)ethanone] | – | – | 5800 nM | 3.1 nM | –
3 | COc1cc(NC(C(=O)c2c[nH]c3cc(OC)c(C)cc23)c2ccc(Cl)cc2OC)cc(OCCO)c1 (racemic) [Compound 6, 2-(4-chloro-2-methoxyphenyl)-2-((3-(2-hydroxyethoxy)-5-methoxyphenyl)amino)-1-(6-methoxy-5-methyl-1H-indol-3-yl)ethanone] | – | – | 5600 nM | 1.2 nM | –
4 | COc1cc(NC(C(=O)c2c[nH]c3cc(Cl)ccc23)c2ccc(Cl)cc2OC)cc(OCCO)c1 (racemic) [Compound 4, 1-(6-chloro-1H-indol-3-yl)-2-(4-chloro-2-methoxyphenyl)-2-((3-(2-hydroxyethoxy)-5-methoxyphenyl)amino)ethanone] | – | – | 6300 nM | 1.4 nM | 154 °C
5 | COc1cc(NC(C(=O)c2c[nH]c3c(C)cc(F)cc23)c2ccc(Cl)cc2OC)cc(OCCO)c1 (single isomer, unassigned) [Compound 8B, 2-(4-chloro-2-methoxyphenyl)-1-(5-fluoro-7-methyl-1H-indol-3-yl)-2-((3-(2-hydroxyethoxy)-5-methoxyphenyl)amino)ethanone] | 5700 nM | 260 nM | – | – | –
6 | COc1cc(NC(C(=O)c2c[nH]c3c(F)cc(C)cc23)c2ccc(Cl)cc2OC)cc(OCCO)c1 (single isomer, unassigned) [Compound 10B, 2-(4-chloro-2-methoxyphenyl)-1-(7-fluoro-5-methyl-1H-indol-3-yl)-2-((3-(2-hydroxyethoxy)-5-methoxyphenyl)amino)ethanone] | 3800 nM | 190 nM | – | – | –
7 | COc1cc(NC(C(=O)c2c[nH]c3c(F)cc(C)cc23)c2ccc(Cl)cc2OC)cc(OCCO)c1 (stereo not drawn) [Compound 10, 2-(4-chloro-2-methoxyphenyl)-1-(7-fluoro-5-methyl-1H-indol-3-yl)-2-((3-(2-hydroxyethoxy)-5-methoxyphenyl)amino)ethanone] | – | – | 5800 nM | 7.5 nM | –
8 | COc1cc(NC(C(=O)c2c[nH]c3c(C)c(Cl)ccc23)c2ccc(Cl)cc2OC)cc(OCCO)c1 (racemic) [Compound 3, 2-(4-chloro-2-methoxyphenyl)-1-(6-chloro-7-methyl-1H-indol-3-yl)-2-((3-(2-hydroxyethoxy)-5-methoxyphenyl)amino)ethanone] | – | – | 5500 nM | 0.72 nM | 220 °C
9 | COc1cc(NC(C(=O)c2c[nH]c3c(C)c(F)ccc23)c2ccc(Cl)cc2OC)cc(OCCO)c1 (single isomer, unassigned) [Compound 2B, 2-(4-chloro-2-methoxyphenyl)-1-(6-fluoro-7-methyl-1H-indol-3-yl)-2-((3-(2-hydroxyethoxy)-5-methoxyphenyl)amino)ethanone] | 6200 nM | 81 nM | – | – | –
10 | COc1cc(NC(C(=O)c2c[nH]c3c(C)cc(F)cc23)c2ccc(Cl)cc2OC)cc(OCCO)c1 (racemic) [Compound 8, 2-(4-chloro-2-methoxyphenyl)-1-(5-fluoro-7-methyl-1H-indol-3-yl)-2-((3-(2-hydroxyethoxy)-5-methoxyphenyl)amino)ethanone] | – | – | 8000 nM | 2.4 nM | –
11 | COc1cc(NC(C(=O)c2c[nH]c3cc(F)ccc23)c2ccc(Cl)cc2OC)cc(OCCO)c1 (single isomer, unassigned) [Compound 1B, 2-(4-chloro-2-methoxyphenyl)-1-(6-fluoro-1H-indol-3-yl)-2-((3-(2-hydroxyethoxy)-5-methoxyphenyl)amino)ethanone] | 6300 nM | 140 nM | – | – | –
12 | COc1cc(NC(C(=O)c2c[nH]c3cc(OC)c(F)cc23)c2ccc(Cl)cc2OC)cc(OCCO)c1 (racemic) [Compound 7, 2-(4-chloro-2-methoxyphenyl)-1-(5-fluoro-6-methoxy-1H-indol-3-yl)-2-((3-(2-hydroxyethoxy)-5-methoxyphenyl)amino)ethanone] | – | – | 7400 nM | 2.6 nM | –
13 | COc1cc(NC(C(=O)c2c[nH]c3c(F)c(F)ccc23)c2ccc(Cl)cc2OC)cc(OCCO)c1 (single isomer, unassigned) [Compound 11A, 2-(4-chloro-2-methoxyphenyl)-1-(6,7-difluoro-1H-indol-3-yl)-2-((3-(2-hydroxyethoxy)-5-methoxyphenyl)amino)ethanone] | – | 90 nM | 6500 nM | – | –
14 | COc1cc(NC(C(=O)c2c[nH]c3cc(OC)c(C)cc23)c2ccc(Cl)cc2OC)cc(OCCO)c1 (single isomer, unassigned) [Compound 6B, 2-(4-chloro-2-methoxyphenyl)-2-((3-(2-hydroxyethoxy)-5-methoxyphenyl)amino)-1-(6-methoxy-5-methyl-1H-indol-3-yl)ethanone] | 5400 nM | 76 nM | – | – | –
15 | COc1cc(NC(C(=O)c2c[nH]c3c(C)c(Cl)ccc23)c2ccc(Cl)cc2OC)cc(OCCO)c1 (single isomer, unassigned) [Compound 3B, 2-(4-chloro-2-methoxyphenyl)-1-(6-chloro-7-methyl-1H-indol-3-yl)-2-((3-(2-hydroxyethoxy)-5-methoxyphenyl)amino)ethanone] | 7100 nM | 45 nM | – | – | –
16 | COc1cc(NC(C(=O)c2c[nH]c3cc(Cl)ccc23)c2ccc(Cl)cc2OC)cc(OCCO)c1 (single isomer, unassigned) [Compound 4B, 1-(6-chloro-1H-indol-3-yl)-2-(4-chloro-2-methoxyphenyl)-2-((3-(2-hydroxyethoxy)-5-methoxyphenyl)amino)ethanone] | 7400 nM | 45 nM | – | – | –
17 | COc1cc(NC(C(=O)c2c[nH]c3cc(F)c(F)cc23)c2ccc(Cl)cc2OC)cc(OCCO)c1 (racemic) [Compound 9, 2-(4-chloro-2-methoxyphenyl)-1-(5,6-difluoro-1H-indol-3-yl)-2-((3-(2-hydroxyethoxy)-5-methoxyphenyl)amino)ethanone] | – | – | 7300 nM | 2.2 nM | –
18 | COc1cc(NC(C(=O)c2c[nH]c3cc(F)ccc23)c2ccc(Cl)cc2OC)cc(OCCO)c1 (racemic) [Compound 1, 2-(4-chloro-2-methoxyphenyl)-1-(6-fluoro-1H-indol-3-yl)-2-((3-(2-hydroxyethoxy)-5-methoxyphenyl)amino)ethanone] | – | – | 6200 nM | 3 nM | –
19 | COc1cc(NC(C(=O)c2c[nH]c3cc(OC)ccc23)c2ccc(Cl)cc2OC)cc(OCCO)c1 (single isomer, unassigned) [Compound 5B, 2-(4-chloro-2-methoxyphenyl)-2-((3-(2-hydroxyethoxy)-5-methoxyphenyl)amino)-1-(6-methoxy-1H-indol-3-yl)ethanone] | 8100 nM | 400 nM | – | – | –
20 | COc1cc(NC(C(=O)c2c[nH]c3cc(OC)ccc23)c2ccc(Cl)cc2OC)cc(OCCO)c1 (racemic) [Compound 5, 2-(4-chloro-2-methoxyphenyl)-2-((3-(2-hydroxyethoxy)-5-methoxyphenyl)amino)-1-(6-methoxy-1H-indol-3-yl)ethanone] | – | – | 6500 nM | 2.3 nM | –
